Measurements: US11098041B2 (Merck Patent GmbH, priority 2014, dated 2021)

Tests used:
[1] = test system: anti-IgM-induced expression of CD69 on CD19 positive cells (B cells) in human PBMCs; assay: Assay C: PBMC IC50 assay (anti-IgM-induced CD69 expression); type: cell-based; conditions: anti-IgM stimulation
Outline: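 Freshly isolated human PBMCs (2.5×10^5/well) pretreated 1 h with compound, then stimulated overnight (~16-18 h) with goat F(ab′)2 anti-human IgM. CD69 on CD19+ B cells measured by flow cytometry; IC50 from percentage CD69+ B cells versus concentration.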

full-length human BTK = full-length human BTK (Homo sapiens (Human), UniProt Q06187); assay: Assay A: microfluidic off-chip mobility shift assay against BTK enzyme; type: biochemical
Sequence of full-length human BTK (Q06187 whole entry): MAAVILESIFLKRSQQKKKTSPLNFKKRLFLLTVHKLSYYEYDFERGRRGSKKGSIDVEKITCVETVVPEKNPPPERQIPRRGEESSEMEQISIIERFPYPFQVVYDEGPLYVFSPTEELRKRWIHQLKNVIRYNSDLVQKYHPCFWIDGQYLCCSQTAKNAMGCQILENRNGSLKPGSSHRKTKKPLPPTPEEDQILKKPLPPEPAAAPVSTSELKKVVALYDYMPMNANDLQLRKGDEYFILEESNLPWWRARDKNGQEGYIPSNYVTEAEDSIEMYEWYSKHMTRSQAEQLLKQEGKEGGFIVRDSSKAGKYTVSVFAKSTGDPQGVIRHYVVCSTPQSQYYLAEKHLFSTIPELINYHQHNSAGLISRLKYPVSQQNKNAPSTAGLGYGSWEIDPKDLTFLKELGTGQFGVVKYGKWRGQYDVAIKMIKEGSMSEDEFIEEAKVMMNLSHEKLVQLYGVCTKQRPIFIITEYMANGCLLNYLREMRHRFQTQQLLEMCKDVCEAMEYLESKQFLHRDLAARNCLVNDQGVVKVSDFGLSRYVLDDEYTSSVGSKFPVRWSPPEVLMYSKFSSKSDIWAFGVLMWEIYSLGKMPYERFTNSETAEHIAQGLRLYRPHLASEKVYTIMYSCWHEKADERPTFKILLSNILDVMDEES

[2] = target: BTK C481S (His-TEV-hsBTK(328-659)(C481S)) (Homo sapiens (Human), UniProt Q06187, C481S); assay: Assay B: microfluidic off-chip mobility shift assay against BTK C481S enzyme; type: biochemical; conditions: BTK C481S mutant
Sequence of BTK C481S (His-TEV-hsBTK(328-659)(C481S)) (Q06187 328-659 C481S): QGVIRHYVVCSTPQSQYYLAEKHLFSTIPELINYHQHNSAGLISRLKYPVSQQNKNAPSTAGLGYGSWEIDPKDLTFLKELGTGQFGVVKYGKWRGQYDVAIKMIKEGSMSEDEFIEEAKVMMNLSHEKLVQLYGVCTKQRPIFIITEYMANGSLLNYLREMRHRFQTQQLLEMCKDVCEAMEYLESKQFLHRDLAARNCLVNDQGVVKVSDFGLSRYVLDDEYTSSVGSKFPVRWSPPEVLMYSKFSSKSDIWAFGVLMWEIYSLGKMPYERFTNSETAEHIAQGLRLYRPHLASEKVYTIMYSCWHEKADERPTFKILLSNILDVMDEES
Outline: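 Substrate-to-phosphopeptide conversion quantified by microfluidic mobility shift with laser-induced fluorescence; IC50 and efficacy from log[inhibitor] vs. % activity.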

CN1CCN(Cc2ccc(-c3nc4c(-c5ccc(CNC(=O)c6noc(C(C)(C)C)n6)c(F)c5)ccnc4[nH]3)cc2)CC1 [Example 71, 5-tert-Butyl-N-[[2-fluoro-4-(2-[4-[(4-methylpiperazin-1-yl)methyl]phenyl]-1H-imidazo[4,5-b]pyridin-7-yl)phenyl]methyl]-1,2,4-oxadiazole-3-carboxamide]
IC50 [1]: < 100 nM
IC50 (full-length human BTK): < 100 nM
IC50 [2]: < 100 nM

O=C1c2c(F)cc(C3CC3)cc2OCCN1c1cccc(-c2ccnc3[nH]c(-c4cccnc4)nc23)c1CO [Example 2, 8-Cyclopropyl-6-fluoro-4-[2-(hydroxymethyl)-3-[2-(pyridin-3-yl)-3H-imidazo[4,5-b]pyridin-7-yl]phenyl]-2,3,4,5-tetrahydro-1,4-benzoxazepin-5-one]
IC50 [1]: 1000 to 5000 nM
IC50 (full-length human BTK): < 100 nM
IC50 [2]: < 100 nM

CC(C)(C)c1nc(C(=O)NCc2ccc(-c3ccnc4[nH]c(C5CC5)nc34)cc2F)no1 [Example 27, 5-tert-Butyl-[1,2,4]oxadiazole-3-carboxylic acid 4-(2-cyclopropyl-3H-imidazo[4,5-b]pyridin-7-yl)-2-fluoro-benzylamide]
IC50 [1]: 1000 to 5000 nM
IC50 (full-length human BTK): < 100 nM
IC50 [2]: < 100 nM

CC(C)(C)c1nc(C(=O)NCc2ccc(-c3ccnc4[nH]c(-c5cnn(CCN)c5)nc34)cc2F)no1 [Example 72, N-[(4-[2-[1-(2-aminoethyl)-1H-pyrazol-4-yl]-3H-imidazo[4,5-b]pyridin-7-yl]-2-fluorophenyl)methyl]-5-tert-butyl-1,2,4-oxadiazole-3-carboxamide]
IC50 [1]: 100 to 1000 nM
IC50 (full-length human BTK): < 100 nM
IC50 [2]: 100 to 1000 nM

CN(C)c1ccc(-c2nc3c(-c4ccc(C5(NC(=O)c6ccc(C(C)(C)C)cc6)CC5)cc4)ccnc3[nH]2)nc1 [Example 54, 4-tert-Butyl-N-[1-(4-[2-[5-(dimethylamino)pyridin-2-yl]-3H-imidazo[4,5-b]pyridin-7-yl]phenyl)cyclopropyl]benzamide]
IC50 [1]: 100 to 1000 nM
IC50 (full-length human BTK): < 100 nM
IC50 [2]: 100 to 1000 nM

Cn1cc(-c2nc3c(-c4ccc(C5(NC(=O)c6noc(C(C)(C)C)n6)CC5)cc4)ccnc3[nH]2)cn1 [Example 53, 5-tert-Butyl-N-(1-[4-[2-(1-methyl-1H-pyrazol-4-yl)-3H-imidazo[4,5-b]pyridin-7-yl]phenyl]cyclopropyl)-1,2,4-oxadiazole-3-carboxamide]
IC50 [1]: < 100 nM
IC50 (full-length human BTK): < 100 nM
IC50 [2]: < 100 nM

CN1CC=C(c2ccc(-c3nc4c(-c5ccc(CNC(=O)c6noc(C(C)(C)C)n6)c(F)c5)ccnc4[nH]3)cc2)CC1 [Example 86, 5-tert-Butyl-N-[(2-fluoro-4-[2-[4-(1-methyl-1,2,3,6-tetrahydropyridin-4-yl)phenyl]-3H-imidazo[4,5-b]pyridin-7-yl]phenyl)methyl]-1,2,4-oxadiazole-3-carboxamide; Trifluoroacetic Acid]
IC50 [1]: < 100 nM
IC50 (full-length human BTK): < 100 nM
IC50 [2]: < 100 nM

CN1CCN(Cc2ccc(-c3nc4c(-c5cccc(N6CCOc7cc(C8CC8)cc(F)c7C6=O)c5CO)ccnc4[nH]3)nc2)CC1 [Example 35, 8-Cyclopropyl-6-fluoro-4-[2-(hydroxymethyl)-3-(2-[5-[(4-methylpiperazin-1-yl)methyl]pyridin-2-yl]-3H-imidazo[4,5-b]pyridin-7-yl)phenyl]-2,3,4,5-tetrahydro-1,4-benzoxazepin-5-one]
IC50 [1]: 100 to 1000 nM
IC50 (full-length human BTK): < 100 nM
IC50 [2]: < 100 nM

Cn1cc(-c2nc3c(-c4cc(F)cc(N5CCn6c(cc7c6CC(C)(C)C7)C5=O)c4CO)ccnc3[nH]2)cn1 [Example 10, 2-(5-fluoro-2-(hydroxymethyl)-3-(2-(1-methyl-1H-pyrazol-4-yl)-3H-imidazo[4,5-b]pyridin-7-yl)phenyl)-7,7-dimethyl-2,3,4,6,7,8-hexahydro-1H-cyclopenta[4,5]pyrrolo[1,2-a]pyrazin-1-one]
IC50 [1]: < 100 nM
IC50 (full-length human BTK): < 100 nM
IC50 [2]: < 100 nM

CCn1cc(-c2nc3c(-c4ccc(CNC(=O)c5cc6c(s5)CCCC6)c(F)c4)ccnc3[nH]2)cn1 [Example 130, 4,5,6,7-Tetrahydro-benzo[b]thiophene-2-carboxylic acid 4-[2-(1-ethyl-1H-pyrazol-4-yl)-3H-imidazo[4,5-b]pyridin-7-yl]-2-fluoro-benzylamide]
IC50 [1]: 100 to 1000 nM
IC50 (full-length human BTK): < 100 nM
IC50 [2]: < 100 nM

CN(C)c1ccc(-c2nc3c(-c4ccc(CNC(=O)c5ccc(C(C)(C)C)cc5)c(F)c4)ccnc3[nH]2)nc1 [Example 89, 4-tert-Butyl-N-[(4-[2-[5-(dimethylamino)pyridin-2-yl]-3H-imidazo[4,5-b]pyridin-7-yl]-2-fluorophenyl)methyl]benzamide]
IC50 [1]: 1000 to 5000 nM
IC50 (full-length human BTK): < 100 nM
IC50 [2]: < 100 nM

CC(C)(C)c1nc(C(=O)NCc2ccc(-c3ccnc4[nH]c(-c5cccc(OC(F)(F)F)c5)nc34)cc2F)no1 [Example 74, 5-tert-Butyl-N-[(2-fluoro-4-[2-[3-(trifluoromethoxy)phenyl]-3H-imidazo[4,5-b]pyridin-7-yl]phenyl)methyl]-1,2,4-oxadiazole-3-carboxamide; trifluoroacetic acid]
IC50 [1]: 100 to 1000 nM
IC50 (full-length human BTK): < 100 nM
IC50 [2]: < 100 nM

Cn1cc(-c2nc3c(-c4ccc(C5(NC(=O)N6CC(OC(C)(C)C)C6)CC5)c(F)c4)ccnc3[nH]2)cn1 [Example 52, 3-(tert-Butoxy)-N-(1-[2-fluoro-4-[2-(1-methyl-1H-pyrazol-4-yl)-3H-imidazo[4,5-b]pyridin-7-yl]phenyl]cyclopropyl)azetidine-1-carboxamide]
IC50 [1]: 100 to 1000 nM
IC50 (full-length human BTK): < 100 nM
IC50 [2]: < 100 nM

Cn1cc(-c2nc3c(-c4ccc(CN5CCOc6cc(C7CC7)cc(F)c6C5=O)c(F)c4)ccnc3[nH]2)cn1 [Example 34, 8-Cyclopropyl-6-fluoro-4-([2-fluoro-4-[2-(1-methyl-1H-pyrazol-4-yl)-3H-imidazo[4,5-b]pyridin-7-yl]phenyl]methyl)-2,3,4,5-tetrahydro-1,4-benzoxazepin-5-one]
IC50 [1]: 100 to 1000 nM
IC50 (full-length human BTK): < 100 nM
IC50 [2]: < 100 nM

Cn1cc(-c2nc3c(-c4ccc(CNC(=O)CCCC5CCCC5)c(F)c4)ccnc3[nH]2)cn1 [Example 16, 4-Cyclopentyl-N-{2-fluoro-4-[2-(1-methyl-1H-pyrazol-4-yl)-3H-imidazo[4,5-b]pyridin-7-yl]-benzyl}-butyramide]
IC50 [1]: > 5000 nM
IC50 (full-length human BTK): < 100 nM
IC50 [2]: < 100 nM

Cn1cc(-c2nc3c(-c4ccc(C(C)(C)NC(=O)c5ccc(C(C)(C)C)cc5)c(F)c4)ccnc3[nH]2)cn1 [Example 106, 4-tert-Butyl-N-(1-{2-fluoro-4-[2-(1-methyl-1H-pyrazol-4-yl)-3H-imidazo[4,5-b]pyridin-7-yl]-phenyl}-1-methyl-ethyl)-benzamide]
IC50 [1]: 100 to 1000 nM
IC50 (full-length human BTK): < 100 nM
IC50 [2]: 100 to 1000 nM

Cn1cc(-c2nc3c(-c4ccc(CNC(=O)c5ccc(C(C)(C)C)cc5)cc4)ccnc3[nH]2)cn1 [Example 110, 4-tert-Butyl-N-{4-[2-(1-methyl-1H-pyrazol-4-yl)-3H-imidazo[4,5-b]pyridin-7-yl]-benzyl}-benzamide]
IC50 [1]: 100 to 1000 nM
IC50 (full-length human BTK): < 100 nM
IC50 [2]: < 100 nM

Cn1cc(-c2nc3c(-c4ccc(C5(NC(=O)c6ccc(C(C)(C)C)cc6)CC5)cc4)ccnc3[nH]2)cn1 [Example 113, 4-tert-Butyl-N-(1-{4-[2-(1-methyl-1H-pyrazol-4-yl)-3H-imidazo[4,5-b]pyridin-7-yl]-phenyl}-cyclopropyl)-benzamide]
IC50 [1]: 100 to 1000 nM
IC50 (full-length human BTK): < 100 nM
IC50 [2]: < 100 nM
